We go through 20 compounds from patent US7964607B2, “Pyrazolo[3,4-d]pyrimidine compounds” (Pfizer Inc., priority 2007, dated 2011).

Usually IC50 stands for the midpoint of a concentration-inhibition curve.

The target in this experiment is T1, human recombinant PDE9 enzyme (Homo sapiens, UniProt O76083).
T1 construct: made in house; host or cells: SF-9 insect cells
T1 sequence (O76083 whole entry): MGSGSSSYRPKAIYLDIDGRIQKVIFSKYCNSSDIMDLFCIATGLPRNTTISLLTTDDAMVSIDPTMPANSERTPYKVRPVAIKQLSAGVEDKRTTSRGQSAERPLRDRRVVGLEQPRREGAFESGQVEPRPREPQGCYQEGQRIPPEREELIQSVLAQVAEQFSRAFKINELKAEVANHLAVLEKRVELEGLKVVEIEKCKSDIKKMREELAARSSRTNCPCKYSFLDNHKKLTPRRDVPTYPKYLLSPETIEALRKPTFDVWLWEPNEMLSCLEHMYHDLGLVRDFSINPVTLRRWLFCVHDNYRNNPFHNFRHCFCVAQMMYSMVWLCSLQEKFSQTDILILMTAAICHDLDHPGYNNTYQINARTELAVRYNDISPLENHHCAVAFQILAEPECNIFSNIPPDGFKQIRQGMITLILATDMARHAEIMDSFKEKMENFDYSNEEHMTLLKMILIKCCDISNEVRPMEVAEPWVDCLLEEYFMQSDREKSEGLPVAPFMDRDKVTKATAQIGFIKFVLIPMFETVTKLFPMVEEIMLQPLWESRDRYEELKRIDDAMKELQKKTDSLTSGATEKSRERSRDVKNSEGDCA
Put plainly: Phosphodiesterase 9 (PDE9) inhibitory activity, Scintillation Proximity (SPA) assay. It counts as biochemical. As to conditions: human recombinant PDE9 from SF-9 cells; 50 nM [3H]cGMP; room temperature, 30 min; additional compounds Ex. 115-228; read-out: G5678A (U):IC50. In outline: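 Scintillation proximity read-out of [3H]cGMP hydrolysis after 30 min at room temperature, with enzyme addition starting the reaction. The enzyme was human recombinant PDE9 expressed in SF-9 cells, titrated to keep substrate turnover at 20% or less. Compound wells held 2% DMSO final, and background was defined with excess PDE inhibitor.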
Turning to `C[C@@H]1CN(Cc2c(Cl)cccc2Cl)C[C@H]1c1nc2c(cnn2C2CCCC2)c(=O)[nH]1` (racemic) [Example 192, 1-cyclopentyl-6-[(3,4-trans)-1-(2,6-dichlorobenzyl)-4-methylpyrrolidin-3-yl]-1,5-dihydro-4H-pyrazolo[3,4-d]pyrimidin-4-one], the concentration for half-maximal inhibition (IC50) is 236 nM. Under `C[C@@H]1CN(Cc2ccc(C#N)cc2)C[C@H]1c1nc2c(cnn2C2CCCC2)c(=O)[nH]1` (racemic) [Example 193, 4-{[(3,4-trans)-3-(1-cyclopentyl-4-oxo-4,5-dihydro-1H-pyrazolo[3,4-d]pyrimidin-6-yl)-4-methylpyrrolidin-1-yl]methyl}benzonitrile] stands 57.7 nM; under `COc1ccc(F)c(CN2C[C@@H](C)[C@H](c3nc4c(cnn4C4CCCC4)c(=O)[nH]3)C2)c1` (racemic) [Example 194, 1-cyclopentyl-6-[(3,4-trans)-1-(2-fluoro-5-methoxybenzyl)-4-methylpyrrolidin-3-yl]-1,5-dihydro-4H-pyrazolo[3,4-d]pyrimidin-4-one], 54.7 nM. Turning to `COc1c(C)cnc(CN2C[C@@H](C)[C@H](c3nc4c(cnn4C4CCCC4)c(=O)[nH]3)C2)c1C` (racemic) [Example 196, 1-cyclopentyl-6-{(3,4-trans)-1-[(4-methoxy-3,5-dimethylpyridin-2-yl)methyl]-4-methylpyrrolidin-3-yl}-1,5-dihydro-4H-pyrazolo[3,4-d]pyrimidin-4-one], the IC50 worked out at 187 nM. As for `Cc1cc(C)cc(CN2C[C@@H](C)[C@H](c3nc4c(cnn4C4CCCC4)c(=O)[nH]3)C2)c1` (racemic) [Example 197, 1-cyclopentyl-6-[(3,4-trans)-1-(3,5-dimethylbenzyl)-4-methylpyrrolidin-3-yl]-1,5-dihydro-4H-pyrazolo[3,4-d]pyrimidin-4-one], the figure is 53.5 nM; as for `Cc1ccc(CN2C[C@@H](C)[C@H](c3nc4c(cnn4C4CCCC4)c(=O)[nH]3)C2)cc1C` (racemic) [Example 198, 1-cyclopentyl-6-[(3,4-trans)-1-(3,4-dimethylbenzyl)-4-methylpyrrolidin-3-yl]-1,5-dihydro-4H-pyrazolo[3,4-d]pyrimidin-4-one], 93.6 nM. On to `C[C@@H]1CN(Cc2nc3ccccc3n2C)C[C@H]1c1nc2c(cnn2C2CCCC2)c(=O)[nH]1` (racemic) [Example 199, 1-cyclopentyl-6-{(3,4-trans)-4-methyl-1-[(1-methyl-1H-benzimidazol-2-yl)methyl]pyrrolidin-3-yl}-1,5-dihydro-4H-pyrazolo[3,4-d]pyrimidin-4-one], for which the IC50 stood at 35.3 nM.

Consider `C[C@@H]1CN(Cc2ccc3c(c2)OCCN3C)C[C@H]1c1nc2c(cnn2C2CCCC2)c(=O)[nH]1` (racemic) [Example 200, 1-cyclopentyl-6-{(3,4-trans)-4-methyl-1-[(4-methyl-3,4-dihydro-2H-1,4-benzoxazin-7-yl)methyl]pyrrolidin-3-yl}-1,5-dihydro-4H-pyrazolo[3,4-d]pyrimidin-4-one], for which the IC50 came to 176 nM. On to `C[C@@H]1CN(CCCc2ccccc2)C[C@H]1c1nc2c(cnn2C2CCCC2)c(=O)[nH]1` (racemic) [Example 201, 1-cyclopentyl-6-[(3,4-trans)-4-methyl-1-(3-phenylpropyl)pyrrolidin-3-yl]-1,5-dihydro-4H-pyrazolo[3,4-d]pyrimidin-4-one], for which the half-maximal inhibitory concentration (IC50) was 146 nM.

Consider `C[C@@H]1CN(Cc2ccccc2C(F)(F)F)C[C@H]1c1nc2c(cnn2C2CCCC2)c(=O)[nH]1` (racemic) [Example 202, 1-cyclopentyl-6-{(3,4-trans)-4-methyl-1-[2-(trifluoromethyl)benzyl]pyrrolidin-3-yl}-1,5-dihydro-4H-pyrazolo[3,4-d]pyrimidin-4-one], for which the concentration for half-maximal inhibition (IC50) came out at 104 nM. As to `C[C@@H]1CN(CCCC(F)(F)F)C[C@H]1c1nc2c(cnn2C2CCCC2)c(=O)[nH]1` (racemic) [Example 203, 1-cyclopentyl-6-{(3,4-trans)-4-methyl-1-(4,4,4-trifluorobutyl)pyrrolidin-3-yl]-1,5-dihydro-4H-pyrazolo[3,4-d]pyrimidin-4-one], the IC50 came out at 83.7 nM.

Take `COc1cccc(CN2C[C@@H](C)[C@H](c3nc4c(cnn4C4CCCC4)c(=O)[nH]3)C2)c1` (racemic) [Example 204, 1-cyclopentyl-6-[(3,4-trans)-1-(3-methoxybenzyl)-4-methylpyrrolidin-3-yl]-1,5-dihydro-4H-pyrazolo[3,4-d]pyrimidin-4-one]: the IC50 is 9.56 nM. Under `C[C@@H]1CN(CC2CCCC2)C[C@H]1c1nc2c(cnn2C2CCCC2)c(=O)[nH]1` (racemic) [Example 205, 1-cyclopentyl-6-[(3,4-trans)-1-(cyclopentylmethyl)-4-methylpyrrolidin-3-yl]-1,5-dihydro-4H-pyrazolo[3,4-d]pyrimidin-4-one] stands 286 nM; under `COc1ccc(CN2C[C@@H](C)[C@H](c3nc4c(cnn4C4CCCC4)c(=O)[nH]3)C2)c(OC)c1` (racemic) [Example 206, 1-cyclopentyl-6-[(3,4-trans)-1-(2,4-dimethoxybenzyl)-4-methylpyrrolidin-3-yl]-1,5-dihydro-4H-pyrazolo[3,4-d]pyrimidin-4-one], 68.4 nM; under `C[C@@H]1CN(Cc2ccc(CN3CCOCC3)cc2)C[C@H]1c1nc2c(cnn2C2CCCC2)c(=O)[nH]1` (racemic) [Example 207, 1-cyclopentyl-6-{(3,4-trans)-4-methyl-1-[4-(morpholin-4-ylmethyl)benzyl]pyrrolidin-3-yl}-1,5-dihydro-4H-pyrazolo[3,4-d]pyrimidin-4-one], 46.2 nM. Under `C[C@@H]1CN(Cc2ccc3nsnc3c2)C[C@H]1c1nc2c(cnn2C2CCCC2)c(=O)[nH]1` (racemic) [Example 208, 6-[(3,4-trans)-1-(2,1,3-benzothiadiazol-5-ylmethyl)-4-methylpyrrolidin-3-yl]-1-cyclopentyl-1,5-dihydro-4H-pyrazolo[3,4-d]pyrimidin-4-one] stands 7.13 nM; under `C[C@@H]1CN(CCOCc2ccccc2)C[C@H]1c1nc2c(cnn2C2CCCC2)c(=O)[nH]1` (racemic) [Example 209, 6-{(3,4-trans)-1-[2-(benzyloxy)ethyl]-4-methylpyrrolidin-3-yl}-1-cyclopentyl-1,5-dihydro-4H-pyrazolo[3,4-d]pyrimidin-4-one], 52.9 nM; under `C[C@@H]1CN(Cc2c(F)cccc2F)C[C@H]1c1nc2c(cnn2C2CCCC2)c(=O)[nH]1` (racemic) [Example 210, 1-cyclopentyl-6-[(3,4-trans)-1-(2,6-diflurobenzyl)-4-methylpyrrolidin-3-yl]-1,5-dihydro-4H-pyrazolo[3,4-d]pyrimidin-4-one], 16.2 nM. As for `COc1ccccc1CN1C[C@@H](C)[C@H](c2nc3c(cnn3C3CCCC3)c(=O)[nH]2)C1` (racemic) [Example 211, 1-cyclopentyl-6-[(3,4-trans)-1-(2-methoxybenzyl)-4-methylpyrrolidin-3-yl]-1,5-dihydro-4H-pyrazolo[3,4-d]pyrimidin-4-one], the figure is 39.8 nM; as for `Cc1nc(C)c(CN2C[C@@H](C)[C@H](c3nc4c(cnn4C4CCCC4)c(=O)[nH]3)C2)nc1C` (racemic) [Example 212, 1-cyclopentyl-6-{(3,4-trans)-4-methyl-1-[(3,5,6-trimethylpyrazin-2-yl)methyl]pyrrolidin-3-yl}-1,5-dihydro-4H-pyrazolo[3,4-d]pyrimidin-4-one], 9.98 nM.
